What was measured:
Type in all cases: biochemical
[1] = biological target: T1, serotonine (5-HT) reuptake in synaptosomes (Rattus norvegicus, UniProt P31652); assay: Inhibition of 5-HT reuptake in synaptosomes; conditions: 3H-5-HT, read-out: 5-HT-uptake IC50
T1 construct: in synaptosomes as described in WO 97/16451 (NeuroSearch A/S); from tissue
From the text: (§1) Compounds of the invention may be tested for their ability to inhibit reuptake of the monoamines dopamine, noradrenaline and serotonin in synaptosomes e.g. such as described in WO 97/30997 (NeuroSearch NS) or WO 97/16451 (NeuroSearch NS). Based on the balanced activity observed in these tests the compound of the invention is considered useful for the treatment, prevention or alleviation of a disease or a disorder or a condition of a mammal, including a human, which disease, disorder or condition is responsive to inhibition of monoamine neurotransmitter re-uptake in the central nervous system.
(§2) Compounds were tested for their ability to inhibit the reuptake of the monoamine neurotransmitters dopamine (DA) noradrenaline (NA) and serotonine (5-HT) in synaptosomes as described in WO 97/16451 (NeuroSearch A/S).
(§3) The test values are given as IC50 (the concentration (μM) of the test substance which inhibits the specific binding of ^3H-DA, ^3H-NA, or ^3H-5-HT by 50%).

[2] = biological target: T2, dopamine (DA) reuptake in synaptosomes (Rattus norvegicus, UniProt P23977); assay: Inhibition of DA reuptake in synaptosomes; conditions: 3H-DA, read-out: DA-uptake IC50
T2 construct: in synaptosomes as described in WO 97/16451 (NeuroSearch A/S); from tissue
From the text: as §1, §2, §3

[3] = biological target: T3, noradrenaline (NA) reuptake in synaptosomes (Rattus norvegicus, UniProt Q63380); assay: Inhibition of NA reuptake in synaptosomes; conditions: 3H-NA, read-out: NA-uptake IC50
T3 construct: in synaptosomes as described in WO 97/16451 (NeuroSearch A/S); from tissue
From the text: as §1, §2, §3

T3 sequence (Q63380 1-617): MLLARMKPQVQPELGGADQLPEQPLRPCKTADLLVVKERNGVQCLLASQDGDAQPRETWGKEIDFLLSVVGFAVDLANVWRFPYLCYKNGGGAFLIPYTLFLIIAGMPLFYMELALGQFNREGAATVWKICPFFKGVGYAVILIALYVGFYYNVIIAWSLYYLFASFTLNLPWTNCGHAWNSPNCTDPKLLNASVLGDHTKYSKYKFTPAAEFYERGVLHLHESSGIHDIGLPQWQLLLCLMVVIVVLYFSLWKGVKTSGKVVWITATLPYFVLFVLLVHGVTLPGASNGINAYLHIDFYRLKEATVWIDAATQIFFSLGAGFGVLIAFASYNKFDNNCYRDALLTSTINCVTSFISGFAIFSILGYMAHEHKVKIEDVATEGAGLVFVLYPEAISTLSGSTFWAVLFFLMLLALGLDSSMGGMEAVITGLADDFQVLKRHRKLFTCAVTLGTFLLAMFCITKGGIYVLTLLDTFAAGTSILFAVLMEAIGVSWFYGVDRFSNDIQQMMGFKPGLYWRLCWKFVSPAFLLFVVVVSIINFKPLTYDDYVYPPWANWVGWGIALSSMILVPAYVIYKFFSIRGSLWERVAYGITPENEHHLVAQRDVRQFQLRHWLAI
T2 sequence (P23977 whole entry): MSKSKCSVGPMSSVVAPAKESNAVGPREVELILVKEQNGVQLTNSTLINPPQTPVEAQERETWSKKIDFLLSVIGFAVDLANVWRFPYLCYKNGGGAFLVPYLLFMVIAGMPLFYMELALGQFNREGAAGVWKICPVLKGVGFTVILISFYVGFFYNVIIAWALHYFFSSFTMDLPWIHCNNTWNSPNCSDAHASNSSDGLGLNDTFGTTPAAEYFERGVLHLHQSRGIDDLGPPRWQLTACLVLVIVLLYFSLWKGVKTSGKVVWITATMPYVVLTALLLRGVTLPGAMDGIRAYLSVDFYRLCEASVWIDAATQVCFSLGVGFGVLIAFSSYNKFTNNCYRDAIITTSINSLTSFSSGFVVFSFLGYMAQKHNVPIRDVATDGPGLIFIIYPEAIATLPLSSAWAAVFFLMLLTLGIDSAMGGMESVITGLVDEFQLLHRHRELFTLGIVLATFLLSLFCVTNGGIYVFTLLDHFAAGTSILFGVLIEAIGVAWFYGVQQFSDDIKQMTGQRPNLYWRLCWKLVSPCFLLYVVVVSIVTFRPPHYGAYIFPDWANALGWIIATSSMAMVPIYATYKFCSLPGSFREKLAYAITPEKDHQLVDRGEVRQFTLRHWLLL
T1 sequence (P31652 whole entry): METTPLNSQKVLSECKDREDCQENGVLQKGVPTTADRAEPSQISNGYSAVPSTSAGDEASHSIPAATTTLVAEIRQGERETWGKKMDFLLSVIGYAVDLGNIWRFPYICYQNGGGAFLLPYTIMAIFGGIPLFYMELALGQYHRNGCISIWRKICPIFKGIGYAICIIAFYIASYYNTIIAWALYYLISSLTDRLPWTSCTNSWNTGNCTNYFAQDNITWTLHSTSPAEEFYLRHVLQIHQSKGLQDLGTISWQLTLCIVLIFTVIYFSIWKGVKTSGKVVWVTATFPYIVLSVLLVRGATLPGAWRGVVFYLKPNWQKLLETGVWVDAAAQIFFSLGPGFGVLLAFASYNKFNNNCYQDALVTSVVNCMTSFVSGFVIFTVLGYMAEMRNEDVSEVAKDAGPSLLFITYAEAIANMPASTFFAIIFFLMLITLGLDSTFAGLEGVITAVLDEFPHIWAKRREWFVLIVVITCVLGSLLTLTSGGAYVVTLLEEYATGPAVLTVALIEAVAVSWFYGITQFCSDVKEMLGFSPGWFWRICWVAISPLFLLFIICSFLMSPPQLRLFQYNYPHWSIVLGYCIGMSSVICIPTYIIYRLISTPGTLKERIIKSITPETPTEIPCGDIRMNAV

SMILES	IC50 [1] [nM]	IC50 [2] [nM]	IC50 [3] [nM]
O=C(Oc1ccc2ccc(=O)oc2c1)N1CC2CCC(C1)N2 [3,8-Diaza-bicyclo[3.2.1]octane-3-carboxylic acid 2-oxo-2H-chromen-7-yl ester]	27	92	620
O=C(Oc1ccc(Cl)c(Cl)c1)N1CC2CCCC(C1)N2 [3,9-Diaza-bicyclo[3.3.1]nonane-3-carboxylic acid 3,4-dichloro-phenyl ester]	7.8	> 1000	2000
COc1ccc2cc(OC(=O)N3CC4CCCC(C3)N4C)ccc2c1 [9-Methyl-3,9-diaza-bicyclo[3.3.1]nonane-3-carboxylic acid 6-methoxynaphthalen-2-yl ester]	340	30	24
CN1C2CCCC1CN(C(=O)Oc1ccc3ccc(=O)oc3c1)C2 [9-Methyl-3,9-diaza-bicyclo[3.3.1]nonane-3-carboxylic acid 2-oxo-2H-chromen-7-yl ester]	40	610	1600

Reference: patent publication US20110092487A1, “NOVEL 3,8-DIAZA-BICYCLO[3.2.1]OCTANE-AND 3,9-DIAZA-BICYCLO[3.3.1]-NONANE-3-CARBOXYLIC ACID ESTER DERIVATIVES AND THEIR USE AS MONOAMINE NEUROT[…]-UPTAKE INHIBITORS” (NeuroSearch A/S, priority 2008, published 2011)
